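Method: 48-hour compound exposure of cells in 96-well plates, five concentrations, linear interpolation of endpoints. TGI: total growth inhibition.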
Key:
Experiment in all cases: NCI anticancer screen, dose series, 48 h
HT29 colon = test system: HT29 colon
SK-OV-3 ovarian = test system: SK-OV-3 ovarian
NCI-H460 lung = test system: NCI-H460 lung
HCT-116 colon = test system: HCT-116 colon
SK-MEL-2 melanoma = test system: SK-MEL-2 melanoma
K-562 leukemia = test system: K-562 leukemia
MOLT-4 leukemia = test system: MOLT-4 leukemia
RXF 393 renal = test system: RXF 393 renal
PC-3 prostate = test system: PC-3 prostate
SW-620 colon = test system: SW-620 colon
HOP-62 NSCLC = test system: HOP-62 NSCLC
OVCAR-8 ovarian = test system: OVCAR-8 ovarian
HS 578T breast = test system: HS 578T breast
A549 NSCLC = test system: A549 NSCLC
IGROV1 ovarian = test system: IGROV1 ovarian
ACHN renal = test system: ACHN renal
SN12C renal = test system: SN12C renal
SK-MEL-28 melanoma = test system: SK-MEL-28 melanoma
HL-60(TB) leukemia = test system: HL-60(TB) leukemia
OVCAR-4 ovarian = test system: OVCAR-4 ovarian
NCI/ADR-RES ovarian = test system: NCI/ADR-RES ovarian
UACC-62 melanoma = test system: UACC-62 melanoma
OVCAR-5 ovarian = test system: OVCAR-5 ovarian
MCF7 breast = test system: MCF7 breast
MDA-N = test system: MDA-N
MALME-3M melanoma = test system: MALME-3M melanoma
COLO 205 colon = test system: COLO 205 colon
CAKI-1 renal = test system: CAKI-1 renal
NCI-H522 lung = test system: NCI-H522 lung
BT-549 breast = test system: BT-549 breast
DU-145 prostate = test system: DU-145 prostate
HCT-15 colon = test system: HCT-15 colon
RPMI-8226 leukemia = test system: RPMI-8226 leukemia
LOX IMVI melanoma = test system: LOX IMVI melanoma
MDA-MB-435 = test system: MDA-MB-435
TK-10 renal = test system: TK-10 renal
MDA-MB-231 breast = test system: MDA-MB-231 breast
OVCAR-3 ovarian = test system: OVCAR-3 ovarian
SK-MEL-5 melanoma = test system: SK-MEL-5 melanoma
UACC-257 melanoma = test system: UACC-257 melanoma
KM12 colon = test system: KM12 colon
NCI-H23 lung = test system: NCI-H23 lung
NCI-H226 lung = test system: NCI-H226 lung
HCC-2998 colon = test system: HCC-2998 colon
786-0 renal = test system: 786-0 renal
EKVX NSCLC = test system: EKVX NSCLC
SNB-75 CNS = test system: SNB-75 CNS
UO-31 renal = test system: UO-31 renal
M14 melanoma = test system: M14 melanoma
CCRF-CEM leukemia = test system: CCRF-CEM leukemia
SF-295 CNS = test system: SF-295 CNS
U251 CNS = test system: U251 CNS
SF-268 CNS = test system: SF-268 CNS
HOP-92 NSCLC = test system: HOP-92 NSCLC
SF-539 CNS = test system: SF-539 CNS
A498 renal = test system: A498 renal
SNB-19 CNS = test system: SNB-19 CNS
SR leukemia = test system: SR leukemia
T-47D breast = test system: T-47D breast

Measured: TGI

C=CCN(C(=O)OC(C)(C)C)C1=CC2C(C)=CN(S(=O)(=O)c3ccccc3)C2C(OCc2ccccc2)=C1 (configuration not stated)
not listed: SF-268 CNS | HOP-92 NSCLC | SF-539 CNS | A498 renal | SNB-19 CNS | SR leukemia | T-47D breast
> 100 µM: all other assays above

NC(CSC(=O)c1ccccc1)C(=O)O (configuration not stated)
not listed: K-562 leukemia | HCC-2998 colon | T-47D breast
> 100 µM: all other assays above

CC(=O)OC1C[C@@H](C)C2(C[C@H](O)c3ccoc3)C(=O)OC[C@]13C2CCC(O)C31CO1 (some centres not stated)
not listed: SK-OV-3 ovarian | SW-620 colon | HL-60(TB) leukemia | EKVX NSCLC | T-47D breast
> 100 µM: all other assays above

Cc1ccc(N(C)S(=O)(=O)c2ccc([N+](=O)[O-])cc2)cc1
not listed: SK-MEL-5 melanoma | NCI-H23 lung | HOP-92 NSCLC | A498 renal | T-47D breast
> 100 µM: all other assays above

Cn1c(-c2ccc(/C=N/N=C/c3ccc(-c4c[n+]5ccccc5n4C)cc3)cc2)c[n+]2ccccc12
not listed: SK-MEL-2 melanoma | RXF 393 renal | UACC-62 melanoma | MALME-3M melanoma | CAKI-1 renal | BT-549 breast | DU-145 prostate | LOX IMVI melanoma | OVCAR-3 ovarian | NCI-H23 lung | NCI-H226 lung | HOP-92 NSCLC | A498 renal
> 100 µM: all other assays above

From PubChem BioAssay (NCI)
